# Assay results taken from paper PMC7722354, “7-Substituted 2-Nitro-5,6-dihydroimidazo[2,1-b][1,3]oxazines: Novel Antitubercular Agents Lead to a New Preclinical Candidate for Visceral Leishmaniasis” (Journal of Medicinal Chemistry, 2017).
# Tests used:
# [1] = tested on: Leishmania infantum; assay: L. inf growth inhibition in mouse macrophages (LMPH); format: cell-based; settings: Macrophage, mean of at least two determinations
# [2] = tested on: Leishmania donovani; assay: L. don amastigote mouse macrophage-based luciferase assay (CDRI); format: cell-based; settings: in mouse macrophages, single test (CDRI)
# [3] = tested on: M. tb, strain H37Rv; assay: LORA minimum inhibitory concentration assay (hypoxic); format: cell-based; settings: Mycobacterium tuberculosis
# [4] = tested on: M. tb, strain H37Rv; assay: MABA minimum inhibitory concentration assay (aerobic); format: cell-based, Mycobacterium tuberculosis
# [5] = tested on: human lung fibroblasts (MRC-5 cells); assay: cytotoxicity toward MRC-5 cells (LMPH); format: cell-based; settings: MRC5
# [6] = tested on: Trypanosoma cruzi; assay: T. cruzi growth inhibition on MRC-5 cells (LMPH); format: cell-based; settings: MRC5
# [7] = Mycobacterium tuberculosis, H37RV, aerobic, read-out: MIC MABA
# [8] = Mycobacterium tuberculosis, H37RV, read-out: MIC MABA, aerobic
Compound,IC50 [1],IC50 [2],MIC [3],"MIC [4, 7]",IC50 [5],IC50 [6],"MIC [4, 8]","MIC ([4]; aerobic, read-out: MIC MABA)"
O=[N+]([O-])c1cn2c(n1)OC(COc1ccc(-c3ccc(F)nc3F)nc1)CC2 (stereo not drawn) [compound 114],52 µM,0.08 µM,41 µM,1.2 µM,> 64 µM,0.35 µM,–,–
O=[N+]([O-])c1cn2c(n1)OC(COc1ccc(-c3ccc(F)nc3)nc1)CC2 (stereo not drawn) [compound 112],–,0.09 µM,21 µM,–,–,–,2.3 µM,–
CC1(COc2ccc(-c3ccc(F)nc3F)nc2)CCn2cc([N+](=O)[O-])nc2O1 (stereo not drawn) [compound 115],0.28 µM,0.11 µM,18 µM,0.94 µM,> 64 µM,0.38 µM,–,–
CC1(COc2ccc(-c3ccc(F)cc3)nc2)CCn2cc([N+](=O)[O-])nc2O1 (stereo not drawn) [compound 90],–,0.65 µM,3.9 µM,–,–,–,0.35 µM,–
O=[N+]([O-])c1cn2c(n1)OC(COc1ccc(-c3ccc(F)nc3)cn1)CC2 (stereo not drawn) [compound 107],–,0.27 µM,15 µM,–,–,–,0.074 µM,–
O=[N+]([O-])c1cn2c(n1)OC(COC1CCN(c3ccc(F)cc3)CC1)CC2 (stereo not drawn) [compound 170],–,–,20 µM,–,–,–,0.78 µM,–
"O=C(OCC1CCn2cc([N+](=O)[O-])nc2O1)N1CCN(c2ccc(F)cc2)CC1 (stereo not drawn) [compound 160, (2-Nitro-6,7-dihydro-5H-imidazo[2,1-b][1,3]oxazin-7-yl)methyl 4-(4-fluorophenyl)-piperazine-1-carboxylate]",> 64 µM,> 100 µM,22 µM,2.5 µM,> 64 µM,1.5 µM,–,–
CC1(COc2ccc(-c3ccc(F)cc3)cn2)CCn2cc([N+](=O)[O-])nc2O1 (stereo not drawn) [compound 61],–,0.09 µM,1 µM,–,–,–,0.17 µM,–
"O=[N+]([O-])c1cn2c(n1)OC(CN1CCN(c3ccc(F)cc3)CC1)CC2 (stereo not drawn) [compound 142, 7-{[4-(4-Fluorophenyl)piperazin-1-yl]methyl}-2-nitro-6,7-dihydro-5H-imidazo[2,1-b][1,3]oxazine]",–,0.19 µM,9.9 µM,–,–,–,1.8 µM,–
O=[N+]([O-])c1cn2c(n1)OC(COc1ccc(-c3ccc(OC(F)(F)F)cc3)cn1)CC2 (stereo not drawn) [compound 64],0.35 µM,0.05 µM,0.47 µM,0.02 to 0.04 µM,> 64 µM,0.12 µM,–,0.027 µM
O=[N+]([O-])c1cn2c(n1)OC(COc1ccc(OCc3ccccc3)cc1)CC2 (stereo not drawn) [compound 45],–,0.02 µM,> 128 µM,–,–,–,> 128 µM,–
O=[N+]([O-])c1cn2c(n1)OC(COc1ccc(-c3ccc(F)nc3F)cn1)CC2 (stereo not drawn) [compound 109],0.19 µM,> 10 µM,4.2 µM,0.25 µM,> 64 µM,0.29 µM,–,–
CC1(COc2ccc(-c3ccc(F)cc3F)cn2)CCn2cc([N+](=O)[O-])nc2O1 (stereo not drawn) [compound 63],0.11 µM,–,2.5 µM,0.089 µM,> 64 µM,0.21 µM,–,–
CC1(COc2ccc(OCc3ccccc3)cc2)CCn2cc([N+](=O)[O-])nc2O1 (stereo not drawn) [compound 47],–,0.12 µM,> 128 µM,0.44 µM,–,–,–,–
CC1(COc2ccc(-c3ccc(OC(F)(F)F)cc3)cc2)CCn2cc([N+](=O)[O-])nc2O1 (stereo not drawn) [compound 54],–,0.52 µM,1.3 µM,–,–,–,0.11 µM,–
CC1(COc2ncc(-c3ccc(F)nc3)cn2)CCn2cc([N+](=O)[O-])nc2O1 (stereo not drawn) [compound 133],6.1 µM,1.3 µM,54 µM,23 µM,> 64 µM,2.9 µM,–,–
CC1(COc2ccc(-c3ccc(OC(F)(F)F)cc3)cn2)CCn2cc([N+](=O)[O-])nc2O1 (stereo not drawn) [compound 65],3.8 µM,0.26 µM,5.3 µM,0.13 µM,> 64 µM,1 µM,–,–
CC1(COCc2ccc(-c3ccc(OC(F)(F)F)cc3)cc2)CCn2cc([N+](=O)[O-])nc2O1 (stereo not drawn) [compound 29],–,–,1.4 µM,–,–,–,0.093 µM,–
CC1(COCc2ccc(OCc3ccccc3)cc2)CCn2cc([N+](=O)[O-])nc2O1 (stereo not drawn) [compound 23],–,0.28 µM,1.4 µM,0.2 µM,–,–,–,–
O=[N+]([O-])c1cn2c(n1)OC(COc1cccc(-c3ccc(F)nc3)n1)CC2 (stereo not drawn) [compound 117],44 µM,> 10 µM,> 128 µM,–,35 µM,0.13 µM,> 128 µM,–
CC1(COCc2ccc(OC(F)(F)F)cc2)CCn2cc([N+](=O)[O-])nc2O1 (stereo not drawn) [compound 21],0.3 µM,0.31 µM,3.3 µM,0.55 µM,> 64 µM,0.75 µM,–,–
CC1(COc2ncc(-c3ccc(F)cc3)cn2)CCn2cc([N+](=O)[O-])nc2O1 (stereo not drawn) [compound 131],0.29 µM,0.32 µM,6.3 µM,0.44 µM,57 µM,0.43 µM,–,–

Compound,IC50 [1],IC50 [2],MIC [3],"MIC [4, 7]",IC50 [5],IC50 [6],"MIC [4, 8]","MIC ([4]; aerobic, read-out: MIC MABA)"
CC1(COc2ccc(-c3ccc(F)nc3)nc2)CCn2cc([N+](=O)[O-])nc2O1 (stereo not drawn) [compound 113],–,0.09 µM,43 µM,–,–,–,2.7 µM,–
CC1(COc2cccc(-c3ccc(F)nc3F)n2)CCn2cc([N+](=O)[O-])nc2O1 (stereo not drawn) [compound 120],0.59 µM,–,7.9 µM,9.3 µM,> 64 µM,0.49 µM,–,–
O=[N+]([O-])c1cn2c(n1)OC(COc1ccc(-c3ccc(OC(F)(F)F)cc3)cc1)CC2 (stereo not drawn) [compound 53],–,0.06 µM,0.73 µM,–,–,–,0.08 µM,–
O=C(c1ccc(F)cc1)N1CCN(CC2CCn3cc([N+](=O)[O-])nc3O2)CC1 (stereo not drawn) [compound 157],45 µM,4.8 µM,> 128 µM,46 µM,> 64 µM,11 µM,–,–
O=[N+]([O-])c1cn2c(n1)O[C@@H](COc1ccc(-c3ccc(OC(F)(F)F)cc3)nc1)CC2 [compound 94],–,–,1.5 µM,–,–,–,0.02 to 0.04 µM,0.024 µM
CC1(COc2cccc(-c3ccc(F)nc3)n2)CCn2cc([N+](=O)[O-])nc2O1 (stereo not drawn) [compound 118],1.1 µM,–,7.8 µM,11 µM,> 64 µM,0.52 µM,–,–
O=[N+]([O-])c1cn2c(n1)O[C@H](COc1ccc(-c3ccc(OC(F)(F)F)cc3)nc1)CC2 [compound 95],–,–,1.6 µM,–,–,–,0.34 µM,–
"O=[N+]([O-])c1cn2c(n1)OC(COc1ccc(-c3ccc(F)cc3)cn1)CC2 (stereo not drawn) [compound 59, 7-({[5-(4-Fluorophenyl)pyridin-2-yl]oxy}methyl)-2-nitro-6,7-dihydro-5H-imidazo[2,1-b][1,3]oxazine]",–,0.01 µM,< 0.25 µM,–,–,–,0.02 to 0.04 µM,0.025 µM
CC1(COC2CCN(c3ccc(F)cc3)CC2)CCn2cc([N+](=O)[O-])nc2O1 (stereo not drawn) [compound 178],–,–,19 µM,–,–,–,0.37 µM,–
O=[N+]([O-])c1cn2c(n1)OC(COc1ccc(-c3ccc(C(F)(F)F)nc3)nc1)CC2 (stereo not drawn) [compound 116],–,0.07 µM,58 µM,–,–,–,0.12 µM,–
O=[N+]([O-])c1cn2c(n1)OC(CN1CCC(Oc3ccc(F)cc3)CC1)CC2 (stereo not drawn) [compound 152],–,0.45 µM,22 µM,–,–,–,2 µM,–
O=[N+]([O-])c1cn2c(n1)OC(COc1ccc(-c3ccc(F)cc3F)nc1)CC2 (stereo not drawn) [compound 91],–,0.02 µM,8.9 µM,–,–,–,0.36 µM,–
CC1(COc2cccc(-c3ccc(F)cc3F)n2)CCn2cc([N+](=O)[O-])nc2O1 (stereo not drawn) [compound 103],0.24 µM,–,4.8 µM,0.69 µM,> 64 µM,0.22 µM,–,–
"C[C@]1(COCc2ccc(-c3ccc(OC(F)(F)F)cc3)cc2)CCn2cc([N+](=O)[O-])nc2O1 [compound 34, (7R)-7-Methyl-2-nitro-7-({[4′-(trifluoromethoxy)[1,1′-biphenyl]-4-yl]methoxy}methyl)-6,7-dihydro-5H-imidazo[2,1-b][1,3]oxazine]",–,0.24 µM,1.1 µM,–,–,–,0.063 µM,–
CC1(COc2cccc(-c3ccc(F)cc3)n2)CCn2cc([N+](=O)[O-])nc2O1 (stereo not drawn) [compound 101],0.18 µM,–,5 µM,0.94 µM,> 64 µM,0.35 µM,–,–
C[C@@]1(COCc2ccc(-c3ccc(OC(F)(F)F)cc3)cc2)CCn2cc([N+](=O)[O-])nc2O1 [compound 38],–,–,6.8 µM,–,–,–,0.74 µM,–
O=[N+]([O-])c1cn2c(n1)OC(COc1ccc(OC(F)(F)F)cc1)CC2 (stereo not drawn) [compound 39],–,0.04 µM,4.7 µM,–,–,–,5.2 µM,–
CC1(COc2ccc(-c3ccc(F)nc3F)cn2)CCn2cc([N+](=O)[O-])nc2O1 (stereo not drawn) [compound 110],0.2 µM,–,6.6 µM,1 µM,> 64 µM,0.43 µM,–,–
O=[N+]([O-])c1cn2c(n1)OC(COc1ccc(-c3ccc(C(F)(F)F)nc3)cn1)CC2 (stereo not drawn) [compound 111],–,0.13 µM,2.5 µM,–,–,–,0.09 µM,–
O=[N+]([O-])c1cn2c(n1)OC(COc1ccc(-c3ccc(OC(F)(F)F)cc3)nc1)CC2 (stereo not drawn) [compound 93],–,0.05 µM,0.86 µM,–,–,–,0.02 to 0.04 µM,0.032 µM
O=[N+]([O-])c1cn2c(n1)OC(COCc1ccc(OCc3ccccc3)cc1)CC2 (stereo not drawn) [compound 22],–,0.05 µM,3 µM,–,–,–,–,–
CC1(COc2ccc(-c3ccc(F)nc3)cn2)CCn2cc([N+](=O)[O-])nc2O1 (stereo not drawn) [compound 108],–,0.22 µM,6.2 µM,–,–,–,1.9 µM,–
